Series [1] has as its system in vitro BBB model (co-culture of bovine brain capillary endothelial cells and rat glial cells). The experiment in a line: In vitro BBB co-culture model, Cu,br/Cu,pl ratio. Particulars: for In vitro Cu,br/Cu,pl Mean 1 h: 2 µM in luminal compartment, abluminal/luminal concentration at 1 h; for In vitro Cu,br/Cu,pl Mean steady-state: steady-state ratio computed from 1 h data with the blue-norna steady-state calculator. Here is the method: Figure 1 Schematic diagram of the experimental protocol. After 12 days of coculture in cell culture medium, both compartments of the in vitro BBB model consisting of a coculture of brain capillary endothlial cells and rat primary glial cells were filled with Hepes-buffered Ringer’s solution and the compounds dissolved at 2 µM were added in the luminal compartment (i.e donor). The presence of glial cells in the abluminal compartment was used to reproduce the non specific binding to brain tisssue within the brain prenchyma in vivo. After 1 hour, aliquots were taken from both compartments. In vitro Cu,br/Cu,pl at 1 h were calculated by dividing the concentration in the abluminal compartment (∼Cu,br) by the concentration in the luminal compartment (∼Cu,pl) at 1 h. The experimental data at 1 h were computed using the blue-norna steady-state calculator to generate the in vitro steady-state Cu,br/Cu,pl.
One hour after the addition of compounds dissolved at 2 µM in the luminal (i.e upper) compartment, aliquots were taken from both compartments previously filled with Hepes-buffered Ringer’s solution at the beginning of the experiment. […] The concentrations in both compartments of the in vitro assay after 1 h were computed using […] blue-norna.com to generate the in vitro steady-state Cu,br/Cu,pl.
The method of Dehouck et al. was used with minor modifications (Fig. 1). Bovine brain endothelial cells isolated from capillary fragments were cocultured with primary mixed glial cells from newborn Sprague–Dawley rats. The glial cells were isolated according to the method of Booher and Sensenbrenner and cultured for 3 weeks, plated on the bottom of cell culture clusters containing six wells each. The endothelial cells were seeded onto collagen-coated polycarbonate cell culture inserts (4.7 cm^2) (Corning Incorp. NY, USA), which were placed in the wells containing glial cells. The medium used for the coculture was Dulbecco’s modified Eagle’s medium supplemented with 10% calf serum, 10% horse serum, 2 mmol/L glutamine, 50 mg/L gentamicin and 1 µg/L basic fibroblast growth factor (Sigma). The medium was changed every second day. Experiments were usually initiated after 12 days of co-culture.
To monitor the integrity of the endothelial cell monolayer, the marker molecule [^14C] sucrose was added to the solution at a concentration of 0.05 µCi/ml. At the start of the transport experiments, buffered Ringer’s solution (pH = 7.4) was added to wells with glial cells. Inserts with brain endothelial cells were placed in these wells and drug solutions at 2 µM were added to the donor compartment. The plates were incubated for 1 h in a polymix shaker at 37°C with a low shaking velocity. Aliquots were taken from the donor compartment in the beginning and at the end of the experiments. The receiver compartments were sampled at the end of the experiments.
The amount of radiotracer in the abluminal compartment was measured in a liquid scintillation analyser (Packard Instrument Company, Meriden, USA). […] The concentrations of the test compound in all samples were analysed by MS/MS.
The mean free brain/plasma ratios were calculated from three individual experiments. One hour ratios were calculated by dividing the drug concentration in the receiver compartment by the free drug concentration in the donor compartment after 1 h. The experimental data at one hour (i.e concentration in both compartment at the beginning of the experiment and after 1 h) were computed using the blue-norna® steady-state calculator (www.blue-norna.com) to predict the in vivo steady-state Cu,br/Cu,pl ratios. For further details on this calculation method see file S1.
The in vivo steady-state Cu,br/Cu,pl were predicted from the in vitro experimental data collected after one hour according to the following equation: […]
Cdonor, t and Creceiver, t are the concentration of drug in the donor and receiver chambers at time t.

Series [2] in a line: Fraction unbound brain (fu,br), brain slice method. Particulars: rat brain slices 300 µm, 1 µM, 5 h incubation. How it is done:
Rats (male Sprague-Dawley) were decapitated under isoflurane anesthesia and the brains were removed carefully and immersed in ice-cold oxygenated physiological buffer at pH7.4. A 6 mm coronal section was cut with a razor and mounted with cyanoacrylate glue onto the tray of the microslicer (DTK-Zero 1 Microslicer, Dosak) after which six to eight 300 µm coronal slices from striatal areas were prepared. […] The compounds were dissolved at 1 µM in the buffer and the solution was incubated with the slice for 5 h.
After 5 h, the brain slices were weighed and homogenized in 9 volumes (w/v) of ECF buffer with a sonicator (SONICS VCX 500 and VCX 130). The slice homogenates in ECF buffer were stored at −20°C prior to analysis. The concentrations of the test compound in the brain slice homogenate and in the ECF buffer was determined by LC-MS/MS.
The unbound volume of distribution Vu,brain, or free fraction fu,brain was calculated according to the following equations: [drawing 1] [drawing 2] where Cslice, CECF and V0 are amount of drug in the slice, the drug concentration in the ECF (representing the drug concentration in the brain ECF, i.e. the free concentration), and the water adhesion of the brain slice. V0 has been estimated using ^14C -inulin in a separate experiment in which brain slices were incubated for 1, 2, and 4 min. V0 was obtained from brain slice uptake – inulin time profile (apparent zero-time intercept).

With `CN1CCN(C2=Nc3cc(Cl)ccc3Nc3ccccc32)CC1` [Clozapine], in series [1], the “In vitro Cu,br/Cu,pl Mean 1 h” value is 0.10 and the “In vitro Cu,br/Cu,pl Mean steady-state” value is 0.71. Further, in series [1] (listed as clozapine), the “In vitro Cu,br/Cu,pl Mean 1 h” value is 0.103 and the “In vitro Cu,br/Cu,pl Mean steady-state” value was 0.713. Also, the “fubrain (slice) Mean” value in series [2] stood at 0.0100.

Source of the values: publication PMC3849192, “A Simple Method for Assessing Free Brain/Free Plasma Ratios Using an In Vitro Model of the Blood Brain Barrier” (PLoS ONE, 2013).
